We go through 1 molecule from US20200281845A1, “COMPOSITIONS COMPRISING LESPEDEZA PLANT EXTRACT” (Clariant International Ltd., priority 2017, published 2020).

The subject of this experiment is Per2pro-LUC. In words: Improvement of circadian clock activity reduced by TCDD, Per2pro-LUC in HaCaT cells. It is filed as cell-based, human. Conditions: TCDD 1.5 nM for 4 hours, compared to cells treated with solvent toluene alone. On the procedure: The improvement effects of the extracts of Lespedeza bicolor Turcz, Lespedeza cuneata G. Don, Lespedeza maximowiczii C. K. Schneid and Lespedeza capitata were measured in skin circadian clock activity reduced by TCDD (2,3,7,8-Tetrachlorodibenzo-p-dioxin) which is an environmental hormone dioxin. HaCaT cells containing Per2pro-LUC were inoculated in a 96-well plate containing Hygromycine B at 200 ug/ml and 10% FBS in DMEM medium (1.4×10^4 cells/well), and cultured in a 5% CO2 incubator at 37° C. for 48 hours. After 48 hours, 50 ug/ml of the extracts of Lespedeza bicolor Turcz, Lespedeza cuneata G. Don and Lespedeza maximowiczii C. K. Schneid and Lespedeza capitata were each treated for 24 hours while being treated with TCDD (2,3,7,8-tetrachlorodibenzo-p-dioxin) 1.5 nM for 4 hours simultaneously, and then transferred to the medium for measuring Luciferase (DMEM containing HEPES 10 mM, Luciferin 1 mM, Hygromycine B 200 ug/ml, 10% FBS). […] K. Schneid and Lespedeza capitata in alleviating reduced biorhythm by environmental hormones. As shown here, cells treated with TCDD had 30% reduced absolute value for Per2pro-LUC rhythm, compared to cells that were treated with the solvent toluene alone. In contrast to this, cells treated with the extracts of Lespedeza bicolor Turcz, Lespedeza cuneata G. Don, Lespedeza maximowiczii C.

As for `Clc1cc2c(cc1Cl)Oc1cc(Cl)c(Cl)cc1O2` [TCDD, 2,3,7,8-Tetrachlorodibenzo-p-dioxin], the “reduced absolute value for Per2pro-LUC rhythm” value is listed as 30%.
